# Patent US20080139613A1, “Chemical Compound” (AstraZeneca AB, priority 2006, published 2008)
# How the values were obtained:
# [1] = Rat pharmacokinetics after intravenous and oral dosing; format: in vivo; settings: male Han Wistar rat; for clearance / half-life / Vd: Alderley Park Han Wistar, whole blood, intravenous 2 mg/kg; for clearance: blood clearance; for half-life: read-out: T½ (converted); for Vd: volume of distribution, read-out: Vdss; for F: bioavailability, oral 2 mg/kg vs intravenous 2 mg/kg
# Method: The rat pharmacokinetic (PK) parameters blood clearance (CL), volume of distribution (Vdss) and half life (t1/2) are calculated by determining the concentration (exposure) of test compound in whole blood samples taken from rats at various, defined time points subsequent to the intra-venous dosing (administration) of formulated test compound. The rat PK parameter bioavailability (F) is calculated by determining the concentration (exposure) of test compound in whole blood samples taken from rats at various, defined time-points subsequent to the oral dosing (administration) of formulated test compound and then by comparison of the ratio of the dose normalized total oral exposure (AUCpo) with the dose normalized total intra-venous exposure (AUCiv). Fraction absorbed (Fabs) is a secondary PK parameter that is often calculated from a knowledge of the clearance (CL) and bioavailability (F) of a test compound. The equation for determination of Fabs is as follows: […]
# where Qh is the species liver blood flow (ml/min/kg).
# For intravenous dosing, test compounds are dissolved in dimethyl acetamide (DMA) and then diluted with water such that the final test compound concentration is 1 mg/ml and the composition of the formulation is 40% DMA: 60% water. Male rats (n=2, Alderley Park Han Wistar strain) are then administered, via the tail vein, the test compound formulation at a dose volume of 2 ml/kg bodyweight such that each rat receives a total test compound dose of 2 mg/kg bodyweight. Blood sampling post IV dosing is via needle stick puncture of the tail vein and is serial in design: two rats have blood samples taken at 5, 20, 40, 90, 180, 360, 720 and 1440 (cardiac puncture) minutes after dosing.
# For oral dosing, test compounds are dissolved in dimethyl sulphoxide (DMSO and then diluted with hydroxymethyl cellulose (HPMC) 0.5% w/v-Tween 80 (0.1% v/v) such that the final test compound concentration is 1 mg/ml and the composition of the formulation is 5% DMSO:95% HPMC/Tween. Male rats (n=2, Alderley Park Han Wistar strain) are then administered, via oral gavage, the test compound formulation at a dose volume of 2 ml/kg bodyweight such that each rat receives a total test compound dose of 2 mg/kg bodyweight. Blood sampling post oral dosing is via needle stick puncture of the tail vein and is serial in design: two rats have blood samples taken at 15, 30, 60, 120, 180, 360, 720 and 1440 (cardiac puncture) minutes after dosing. All blood samples are collected into lithium heparin tubes to prevent clotting. Aliqouts of blood are then diluted 1:1 with water and then frozen at −20° C. prior to being assayed to determine test compound concentration.
# Calibration standard samples are prepared by addition of known amounts of test compound to blank diluted (1:1) blood samples. Calibration standards and unknown samples are then diluted and mixed with 3 parts ice-cold acetonitrile (containing suitable internal standard) to precipitate proteinaceous material. Following centrifugation, sample and calibration standard supernatants are analysed for test compound concentration by HPLC with MS/MS (triple quad mass spectrometry) detection. Quantification of test compound concentrations in the blood samples taken from the rats is achieved by reference to a standard curve constructed from the calibration standard samples.
# Blood concentration—time point data and other information such as IV and PO dose is then entered into and analysed by a commercially available non-linear regression software program (WinNonLin version 4.1, Pharsight Corporation) to determine the rat PK parameters of interest (as described above).
# CCR5 = target: T1, CCR5 (Homo sapiens, UniProt P51681); assay: Displacement of radio-labelled CCR5 antagonist from Allo-T cell membranes; format: binding; settings: membranes of human allo-reactive T cells; 2 nM [3H] CCR5 antagonist; 2 hours at room temperature
# T1 construct: After 21 to 34 days culture, the membranes were prepared from the cells; endogenous in cells; host or cells: Allo-T cells (allo-reactive T cell line from human PBMCs), membrane preparation
# T1 sequence (P51681 whole entry): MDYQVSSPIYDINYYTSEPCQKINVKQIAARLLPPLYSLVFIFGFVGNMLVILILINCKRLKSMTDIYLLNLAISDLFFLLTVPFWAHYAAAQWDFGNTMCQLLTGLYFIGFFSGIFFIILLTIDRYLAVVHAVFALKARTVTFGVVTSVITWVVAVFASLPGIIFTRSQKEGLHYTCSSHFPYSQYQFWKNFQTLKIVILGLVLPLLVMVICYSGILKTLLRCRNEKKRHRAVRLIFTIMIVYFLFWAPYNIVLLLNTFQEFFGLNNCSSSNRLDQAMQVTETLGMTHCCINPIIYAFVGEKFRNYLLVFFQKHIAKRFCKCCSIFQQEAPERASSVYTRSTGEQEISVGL
# Method: The ability of the compound of the present invention to inhibit the binding of MIP-1β (CCL-4) was measured:
# An allo-reactive T cell line was generated by exposure of human peripheral blood mononuclear cells (PBMCs) to L-DR4/B7 fibroblasts (immobilised with glutaraldehyde fixation and irradiation) and subsequent expansion with anti-CD3 and IL-2 for 14 days. The resultant Allo-T cells were frozen. When required, the cells were grown and re-challenged with irradiated HLA-DR4+ve PBMCs and expanded with anti-CD3 and IL-2. After 21 to 34 days culture, the membranes were prepared from the cells. These membranes were incubated in 96-well plates with 2 nM of the radio-labelled CCR5 antagonist [^3H]1-{(3R)-3-(3,5-difluorophenyl)-3-[4-(methylsulfonyl)phenyl]propyl}-4-(2-{[4-(methylsulfonyl)phenyl]sulfonyl}ethyl)piperidine and various concentrations of the compound of the invention for 2 hours at room temperature. The plates were then harvested onto GF/B filter plates (which had been pre-soaked soaked in 0.3% PEI containing 0.2% BSA for 10 min at 4° C.) using a Packard Unifilter harvester using 10 wash steps. The amount of [^3H]1-{(3R)-3-(3,5-difluorophenyl)-3-[4-(methylsulfonyl)phenyl]propyl}-4-(2-{[4-(methylsulfonyl)phenyl]sulfonyl}ethyl)piperidine retained on the filter plates was determined by scintillation counting. […]
clearance [1],half-life [1],Vd [1],F [1],IC50 (CCR5),SMILES
37 mL/min/kg,2.7 h,4.9 L/kg,1%,32 nM,"Cc1nnc(C(C)C)n1C1CCN(C(C)C[C@@H](c2cc(F)cc(F)c2)C2CCN(S(C)(=O)=O)CC2)CC1 (single isomer, unassigned) [Comparator Compound A]"
18 mL/min/kg,4 h,4.1 L/kg,28%,6.5 nM,"CCc1nnc(C(C)C)n1C1CCN([C@H](C)C[C@@H](c2cc(F)cc(F)c2)C2CCN(S(C)(=O)=O)CC2)CC1 (single isomer, unassigned)"
